Assay results reported in patent US7960377B2 (priority 2008, dated 2011).
Like-named read-outs stand apart in the source and are kept apart here.

Legend:
Assay in all cases: cell-based
[1] = target: human CB2 receptor (Homo sapiens, UniProt P34972); type: cell-based
[2] = target: human CB1 receptor (Homo sapiens, UniProt P21554)
[3] = target: T1, rat CB2 receptor (Rattus norvegicus, UniProt Q9QZN9); type: cell-based
T1 sequence (Q9QZN9 1-360): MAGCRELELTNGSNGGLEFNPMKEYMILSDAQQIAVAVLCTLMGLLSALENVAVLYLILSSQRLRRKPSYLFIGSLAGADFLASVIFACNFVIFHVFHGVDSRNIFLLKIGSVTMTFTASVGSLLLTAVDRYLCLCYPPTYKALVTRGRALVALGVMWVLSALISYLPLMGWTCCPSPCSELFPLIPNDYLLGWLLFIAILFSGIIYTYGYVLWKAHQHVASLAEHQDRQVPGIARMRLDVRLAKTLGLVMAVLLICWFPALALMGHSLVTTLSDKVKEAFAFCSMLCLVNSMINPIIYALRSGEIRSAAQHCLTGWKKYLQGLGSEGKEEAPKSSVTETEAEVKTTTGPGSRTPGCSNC

[4] = change in intracellular cAMP, CHO-K1 hCB2 cells, class AR, read-out: EC50 values for human CB2 receptor
[5] = asterisk at the compound number

Sequence of human CB2 receptor (P34972 whole entry): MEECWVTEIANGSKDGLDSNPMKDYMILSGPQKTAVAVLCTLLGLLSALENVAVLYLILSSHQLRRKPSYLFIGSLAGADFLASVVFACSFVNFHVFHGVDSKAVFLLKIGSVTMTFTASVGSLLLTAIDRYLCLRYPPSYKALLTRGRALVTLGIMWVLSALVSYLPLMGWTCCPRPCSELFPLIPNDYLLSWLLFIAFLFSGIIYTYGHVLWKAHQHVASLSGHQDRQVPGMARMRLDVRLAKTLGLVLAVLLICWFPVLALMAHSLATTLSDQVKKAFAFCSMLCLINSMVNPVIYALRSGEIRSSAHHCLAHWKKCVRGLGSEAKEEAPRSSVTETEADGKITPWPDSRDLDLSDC
Sequence of human CB1 receptor (P21554 whole entry): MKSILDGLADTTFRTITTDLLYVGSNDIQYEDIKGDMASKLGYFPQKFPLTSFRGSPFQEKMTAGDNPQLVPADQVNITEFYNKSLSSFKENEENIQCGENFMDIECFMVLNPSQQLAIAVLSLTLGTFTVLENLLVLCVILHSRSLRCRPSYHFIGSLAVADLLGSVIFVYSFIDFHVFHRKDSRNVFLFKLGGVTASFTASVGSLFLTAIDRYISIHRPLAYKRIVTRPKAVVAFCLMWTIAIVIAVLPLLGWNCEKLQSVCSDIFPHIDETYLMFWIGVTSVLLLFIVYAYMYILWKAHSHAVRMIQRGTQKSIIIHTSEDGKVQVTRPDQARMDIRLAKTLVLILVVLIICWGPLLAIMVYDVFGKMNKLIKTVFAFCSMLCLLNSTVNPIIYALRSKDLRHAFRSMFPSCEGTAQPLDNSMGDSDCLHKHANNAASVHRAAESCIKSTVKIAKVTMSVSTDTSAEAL

| SMILES | EC50 [1, 4] [µM] | EC50 [2] [µM] | further results |
| --- | --- | --- | --- |
| CCN(CC)C(=O)c1cnc2c(c1)N(S(=O)(=O)c1cccnc1)CCO2 [Example 18, N,N-diethyl-1-(pyridin-3-ylsulfonyl)-2,3-dihydro-1H-pyrido[2,3-b][1,4]oxazine-7-carboxamide] | > 30 | > 30 | – |
| COCCCNC(=O)c1cnc2c(c1)N(S(=O)(=O)c1cccnc1)CCO2 [Example 19, N-(3-methoxypropyl)-1-(pyridin-3-ylsulfonyl)-2,3-dihydro-1H-pyrido[2,3-b][1,4]oxazine-7-carboxamide] | > 30 | > 30 | – |
| Cn1cnc(S(=O)(=O)N2CCOc3ncc(C(=O)NC(C)(C)C)cc32)c1 [Example 30, N-tert-butyl-1-(1-methyl-1H-imidazol-4-ylsulfonyl)-2,3-dihydro-1H-pyrido-[2,3-b][1,4]oxazine-7-carboxamide] | > 30 | > 30 | – |
| Cn1cnc(S(=O)(=O)N2CCOc3ncc(C(=O)NC4CCCC4)cc32)c1 [Example 31, N-cyclopentyl-1-(1-methyl-1H-imidazol-4-ylsulfonyl)-2,3-dihydro-1H-pyrido[2,3-b][1,4] oxazine-7-carboxamide] | > 30 | > 30 | – |
| CCN(CCN(C)C)C(=O)c1cnc2c(c1)N(S(=O)(=O)c1ccc(C(F)(F)F)cc1)CCO2 [Example 38, N-(2-(dimethylamino)-ethyl)-N-ethyl-1-(4-(trifluoromethyl)phenylsulf-onyl)-2,3-dihydro-1H-pyrido[2,3-b][1,4]oxazine-7-carboxamide] | > 30 | > 30 | – |
| CC(C)(C)NC(=O)c1cnc2c(c1)N(S(=O)(=O)c1cc(Cl)cc(Cl)c1)CCO2 [Example 53, N-tert-butyl-1-(3,5-dichlorophenylsulfonyl)-2,3-dihydro-1H-pyrido[2,3-b][1,4]oxazine-7-carboxamide] | – | > 30 | EC50 [1]: > 30 µM |
| CC(C)(C)NC(=O)c1cnc2c(c1)N(S(=O)(=O)Cc1ccc(C(F)(F)F)cc1)CCO2 [Example 63, N-tert-butyl-1-(4-(trifluoromethyl)benzylsulf-onyl)-2,3-dihydro-1H-pyrido[2,3-b][1,4]oxazine-7-carboxamide] | > 30 | > 30 | – |
| CCS(=O)(=O)N1CCOc2ncc(C(=O)NC(C)(C)C)cc21 [Example 80, N-tert-butyl-1-(ethylsulfonyl)-2,3-dihydro-1H-pyrido[2,3-b][1,4]oxazine-7-carboxamide] | – | > 30 | EC50 [1]: > 30 µM |
| Cc1cccc(CS(=O)(=O)N2CCOc3ncc(C(=O)NC(C)(C)C)cc32)c1 [Example 81, N-tert-butyl-1-(3-methylbenzylsulfonyl)-2,3-dihydro-1H-pyrido[2,3-b][1,4]oxazine-7-carboxamide] | > 30 | > 30 | – |
| CC(C)(C)NC(=O)c1cnc2c(c1)N(S(=O)(=O)c1ccccc1OC(F)(F)F)CCO2 [Example 84, N-tert-butyl-1-(2-(trifluoromethoxy)phenyl-sulfonyl)-2,3-dihydro-1H-pyrido[2,3-b][1,4]oxazine-7-carboxamide] | > 30 | > 30 | – |
| CC(C)(C)NC(=O)c1cnc2c(c1)N(S(=O)(=O)c1cccc3ccccc13)CCO2 [Example 87, N-tert-butyl-1-(naphthalen-1-ylsulfonyl)-2,3-dihydro-1H-pyrido[2,3-b][1,4]oxazine-7-carboxamide] | – | > 30 | EC50 [1]: > 30 µM |
| CC(C)(C)NC(=O)c1cnc2c(c1)N(S(=O)(=O)c1ccc3ccccc3c1)CCO2 [Example 88, N-tert-butyl-1-(naphthalen-2-ylsulfonyl)-2,3-dihydro-1H-pyrido[2,3-b][1,4]oxazine-7-carboxamide] | – | > 30 | EC50 [1]: > 30 µM |
| Cc1cc(S(=O)(=O)N2CCOc3ncc(C(=O)NC(C)(C)C)cc32)c(C)s1 [Example 91, N-tert-butyl-1-(2,5-dimethylthiophen-3-ylsulfonyl)-2,3-dihydro-1H-pyrido[2,3-b][1,4]oxazine-7-carboxamide] | – | > 30 | EC50 [1]: > 30 µM |
| CC(C)CNS(=O)(=O)N1CCOc2ncc(C(=O)NCC(C)(C)CO)cc21 [Example 182, N-(3-hydroxy-2,2-dimethylpropyl)-1-(N-isobutylsulfamoyl)-2,3-dihydro-1H-pyrido[2,3-b][1,4]oxazine-7-carboxamide] | – | > 30 | EC50 [3]: ≤ 0.03 µM |
| CC(C)(CO)NC(=O)c1cnc2c(c1)N(S(=O)(=O)N1CC(F)(F)C1)CCO2 [Example 195, 1-(3,3-difluoroazetidin-1-ylsulfonyl)-N-(1-hydroxy-2-methylpropan-2-yl)-2,3-dihydro-1H-pyrido[2,3-b][1,4]oxazine-7-carboxamide] | – | – | EC50 [1]: > 30 µM |
| C[C@@H]1CCC[C@H](C)N1C(=O)c1cnc2c(c1)N(S(=O)(=O)c1ccc(C(F)(F)F)cc1)CCO2 [Example 197, (cis-2,6-dimethylpiperidin-1-yl)(1-(4-(trifluoromethyl)phenylsulf-onyl)-2,3-dihydro-1H-pyrido[2,3-b][1,4]oxazin-7-yl)methanone] | – | > 30 | EC50 [3]: ≤ 0.03 µM |
| O=C(NC1(CO)CCC1)c1cnc2c(c1)N(S(=O)(=O)c1ccc(Cl)c(Cl)c1)CCO2 [Example 209, 1-(3,4-dichlorophenylsulfonyl)-N-(1-(hydroxymethyl)cyclobutyl)-2,3-dihydro-1H-pyrido[2,3-b][1,4]oxazine-7-carboxamide] | – | > 30 | EC50 [3]: ≤ 0.03 µM |
| CCc1noc(-c2cnc3c(c2)N(S(=O)(=O)c2ccccc2)CCO3)n1 [Example 210, 7-(3-ethyl-1,2,4-oxadiazol-5-yl)-1-(phenylsulfonyl)-2,3-dihydro-1H-pyrido[2,3-b][1,4]oxazine] | – | > 30 | EC50 [3]: ≤ 0.03 µM |
| O=S(=O)(c1ccccc1)N1CCOc2ncc(-c3nnc(-c4ccccc4)o3)cc21 [Example 211, 7-(5-phenyl-1,3,4-oxadiazol-2-yl)-1-(phenylsulfonyl)-2,3-dihydro-1H-pyrido[2,3-b][1,4]oxazine] | – | > 30 | inverse agonist mark, rat CB2 receptor [3, 5]: 181, 188, 189, 190, 195, 200, 201, 202, 204, 211*, 214*, 220, 221, |
| O=C(NC1CCCC1)c1noc(-c2cnc3c(c2)N(S(=O)(=O)c2ccc(F)cc2)CCO3)n1 [Example 213, N-cyclopentyl-5-(1-(4-fluorophenylsulfonyl)-2,3-dihydro-1H-pyrido[2,3-b][1,4]oxazin-7-yl)-1,2,4-oxadiazole-3-carboxamide] | – | – | inverse agonist mark, human CB2 receptor [1, 5]: 175, 178, 179, 181, 198, 204, 205, 213*, 214, 215, 216, 219, 220, |
| CC1(C)N=C(c2cnc3c(c2)N(S(=O)(=O)c2ccc(C(F)(F)F)cc2)CCO3)NO1 [Example 223, 7-(5,5-dimethyl-2,5-dihydro-1,2,4-oxadiazol-3-yl)-1-(4-(trifluoromethyl)phenylsulfonyl)-2,3-dihydro-1H-pyrido[2,3-b][1,4]oxazine] | – | > 30 | EC50 [3]: ≤ 0.03 µM |
| CC1(C)CN=C(c2cnc3c(c2)N(S(=O)(=O)c2ccc(C(F)(F)F)cc2)CCO3)NC1 [Example 225, 7-(5,5-dimethyl-1,4,5,6-tetrahydropyrimidin-2-yl)-1-(4-(trifluoromethyl)phenylsulfonyl)-2,3-dihydro-1H-pyrido[2,3-b][1,4]oxazine] | – | > 30 | EC50 [3]: > 30 µM |
| O=S(=O)(c1ccc(C(F)(F)F)cc1)N1CCOc2ncc(-c3ncc(-c4ccccc4)[nH]3)cc21 [Example 226, 7-(5-phenyl-1H-imidazol-2-yl)-1-(4-(trifluoromethyl)phenylsulfonyl)-2,3-dihydro-1H-pyrido[2,3-b][1,4]oxazine] | > 30 | – | – |
